Data taken from US12428406B2 (PMV Pharmaceuticals, Inc., priority 2019, dated 2025).

The compounds below were run against T1, p53 Y220C (Homo sapiens, UniProt P04637, Y220C) (assay: In vitro DNA binding activity assay (HTRF / TR-FRET): stabilization of p53 Y220C and increase of its DNA binding activity). Conditions: recombinant His-tagged p53 Y220C DNA binding domain (aa 94-312), biotin-labeled consensus DNA, incubated at 27° C. or 29° C. for 60 min.
T1 construct: The recombinant protein was a truncation mutant containing only amino acids 94-312 of p53; made in house; host or cells: E. coli
T1 sequence (P04637 94-312, change not shown): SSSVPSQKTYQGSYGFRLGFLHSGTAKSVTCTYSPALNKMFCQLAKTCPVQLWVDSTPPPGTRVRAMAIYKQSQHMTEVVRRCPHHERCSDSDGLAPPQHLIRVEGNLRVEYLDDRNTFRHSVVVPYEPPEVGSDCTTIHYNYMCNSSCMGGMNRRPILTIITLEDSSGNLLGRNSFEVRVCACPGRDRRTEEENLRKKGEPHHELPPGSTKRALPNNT
Assay type: biochemical
Summary of the method: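 Stabilization of the mutant is inferred from increased binding of His-tagged p53 Y220C to a biotin-labeled consensus DNA, detected by HTRF with europium-streptavidin and APC-anti-His antibody. The concentration giving a 50% rise over compound-free binding is reported as SC150.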
With COCC(O)CN1CCC(Nc2cccc3c2cc(C#CCNc2ccc(S(C)(=O)=O)cc2OC)n3CCC(F)(F)F)CC1 (stereo not shown) [Compound 711A, 1-{4-[(2-{3-[(4-methanesulfonyl-2-methoxyphenyl)amino]prop-1-yn-1-yl}-1-(3,3,3-trifluoropropyl)-1H-indol-4-yl)amino]piperidin-1-yl}-3-methoxypropan-2-ol] the “SC150 (concentration of the compound required to increase the DNA binding activity by 50%)” value was “++ (++ = 0.05 μM ≤ SC150 < 0.1 μM)”. COCCOc1cc(S(C)(=O)=O)ccc1NCC#Cc1cc2c(N[C@H]3CC[C@H](N4CC5(COC5)C4)CC3)cccc2n1CC(F)(F)F [Compound 220A, 2-(3-{[4-methane-sulfonyl-2-(2-methoxyethoxy)phenyl]amino}prop-1-yn-1-yl)-N-[(1R,4R)-4-{2-oxa-6-azaspiro[3.3]heptan-6-yl}cyclohexyl]-1-(2,2,2-trifluoroethyl)-1H-indol-4-amine] was tested, and the “SC150 (concentration of the compound required to increase the DNA binding activity by 50%)” value was “+ (+ = 0 μM ≤ SC150 < 0.05 μM)”. For CCS(=O)(=O)c1ccc(NCC#Cc2cc3c(N[C@@H]4CCNC[C@@H]4F)cccc3n2CC(F)(F)F)c(OC)c1 [Compound 935A, 2-(3-{[4-(ethanesulfonyl)-2-methoxyphenyl]amino}prop-1-yn-1-yl)-N-[(3S,4R)-3-fluoropiperidin-4-yl]-1-(2,2,2-trifluoroethyl)-1H-indol-4-amine], the “SC150 (concentration of the compound required to increase the DNA binding activity by 50%)” value was “+ (+ = 0 μM ≤ SC150 < 0.05 μM)”. In the case of COc1cc(S(C)(=O)=O)ccc1NCC#Cc1cc2c(NC3CCN(C(=O)C(C)O)CC3)cccc2n1CC(F)(F)F (stereo not shown) [Compound 742A], the “SC150 (concentration of the compound required to increase the DNA binding activity by 50%)” value is reported as “+ (+ = 0 μM ≤ SC150 < 0.05 μM)”. CCCn1c(C#CCNc2ccc(S(C)(=O)=O)cc2OC)cc2c(NC3CCN(CC(O)COC)CC3)cccc21 (stereo not shown) [Compound 697A, 1-{4-[(2-{3-[(4-methanesulfonyl-2-methoxyphenyl)amino]prop-1-yn-1-yl}-1-propyl-1H-indol-4-yl)amino]piperidin-1-yl}-3-methoxypropan-2-ol] was tested, and the “SC150 (concentration of the compound required to increase the DNA binding activity by 50%)” value was “+ (+ = 0 μM ≤ SC150 < 0.05 μM)”. In the case of COc1cc(S(C)(=O)=O)ccc1NCC#Cc1cc2c(NC3CCN(C(=O)CC#N)CC3)cccc2n1CC(F)(F)F [Compound 746A], the “SC150 (concentration of the compound required to increase the DNA binding activity by 50%)” value is reported as “+ (+ = 0 μM ≤ SC150 < 0.05 μM)”. In the case of CCN1CC[C@@H](Nc2cccc3c2cc(C#CCNc2ccc(C(=O)NC)cc2OC)n3CC(F)(F)F)[C@@H](F)C1 [Compound 1074A, 4-{[3-(4-{[(3S,4R)-1-ethyl-3-fluoropiperidin-4-yl]amino}-1-(2,2,2-trifluoroethyl)-1H-indol-2-yl)prop-2-yn-1-yl]amino}-3-methoxy-N-methylbenzamide], the “SC150 (concentration of the compound required to increase the DNA binding activity by 50%)” value is reported as “+ (+ = 0 μM ≤ SC150 < 0.05 μM)”. With COc1cc(S(C)(=O)=O)ccc1NCC#Cc1cc2c(N[C@H]3CCN(C(=O)CN(C)C)C[C@H]3F)cccc2n1CC(F)(F)F [Compound 856A, 2-(dimethylamino)-1-[(3R,4S)-3-fluoro-4-[(2-{3-[(4-methanesulfonyl-2-methoxyphenyl)amino]prop-1-yn-1-yl}-1-(2,2,2-trifluoroethyl)-1H-indol-4-yl)amino]piperidin-1-yl]ethan-1-one] the “SC150 (concentration of the compound required to increase the DNA binding activity by 50%)” value was “+ (+ = 0 μM ≤ SC150 < 0.05 μM)”. In the case of COc1cc(S(=O)(=O)Nc2cc(C)on2)ccc1NCC#Cc1cc2c(NC3CCN(C)CC3)cccc2n1CC(F)(F)F [Compound 471A, 3-methoxy-N-(5-methyl-1,2-oxazol-3-yl)-4-[(3-{4-[(1-methylpiperidin-4-yl)amino]-1-(2,2,2-trifluoroethyl)-1H-indol-2-yl}prop-2-yn-1-yl)amino]benzene-1-sulfonamide], the “SC150 (concentration of the compound required to increase the DNA binding activity by 50%)” value is reported as “+ (+ = 0 μM ≤ SC150 < 0.05 μM)”. In the case of COCCN(C)[C@H]1CC[C@H](Nc2cccc3c2cc(C#CCNc2ccc(S(C)(=O)=O)cc2OCF)n3CC(F)(F)F)CC1 [Compound 155A, (1R,4R)—N^1-(2-(3-((2-(fluoromethoxy)-4-(methylsulfonyl)phenyl)amino)prop-1-yn-1-yl)-1-(2,2,2-trifluoroethyl)-1H-indol-4-yl)-N^4-(2-methoxyethyl)-N^4-methylcyclohexane-1,4-diamine], the “SC150 (concentration of the compound required to increase the DNA binding activity by 50%)” value is reported as “+ (+ = 0 μM ≤ SC150 < 0.05 μM)”. For CC(=O)Nc1cc(S(C)(=O)=O)ccc1OCC#Cc1cc2c(N[C@H]3CC[C@H](N(C)C)CC3)cccc2n1CC(F)(F)F [Compound 115A, N-(5-methanesulfonyl-2-{[3-(4-{[(1R,4R)-4-(dimethylamino)cyclohexyl]amino}-1-(2,2,2-trifluoro-ethyl)-1H-indol-2-yl)prop-2-yn-1-yl]oxy}phenyl)acetamide], the “SC150 (concentration of the compound required to increase the DNA binding activity by 50%)” value was “++ (++ = 0.05 μM ≤ SC150 < 0.1 μM)”. With CCC(=O)N1CC[C@@H](Nc2cccc3c2cc(C#CCNc2ccc(S(C)(=O)=O)cc2OC)n3CC(F)(F)F)[C@@H](F)C1 [Compound 864A, 1-[(3S,4R)-3-fluoro-4-[(2-{3-[(4-methanesulfonyl-2-methoxyphenyl)amino]prop-1-yn-1-yl}-1-(2,2,2-trifluoroethyl)-1H-indol-4-yl)amino]piperidin-1-yl]propan-1-one] the “SC150 (concentration of the compound required to increase the DNA binding activity by 50%)” value was “+ (+ = 0 μM ≤ SC150 < 0.05 μM)”. With CCN1CCC(Nc2cccc3c2cc(C#CCNc2ccc(S(N)(=O)=O)cc2OC)n3CC(F)(F)F)CC1 [Compound 538A, 4-[(3-{4-[(1-ethylpiperidin-4-yl)amino]-1-(2,2,2-trifluoroethyl)-1H-indol-2-yl}prop-2-yn-1-yl)amino]-3-methoxybenzene-1-sulfonamide] the “SC150 (concentration of the compound required to increase the DNA binding activity by 50%)” value was “+ (+ = 0 μM ≤ SC150 < 0.05 μM)”. For COc1cc(S(=O)(=O)N2CCN(C)CC2)ccc1NCC#Cc1cc2c(N[C@H]3CC[C@H](N(C)C)CC3)cccc2n1CC(F)(F)F [Compound 76A, (1R,4R)-N^4-{2-[3-({2-methoxy-4-[(4-methylpiperazin-1-yl)sulfonyl]phenyl}amino)prop-1-yn-1-yl]-1-(2,2,2-trifluoroethyl)-1H-indol-4-yl}-N^1,N^1-dimethyl-cyclohexane-1,4-diamine], the “SC150 (concentration of the compound required to increase the DNA binding activity by 50%)” value was “+ (+ = 0 μM ≤ SC150 < 0.05 μM)”. With COc1cc(-c2ccncc2)ccc1NCC#Cc1cc2c(NC3CCN(C)CC3)cccc2n1CC(F)(F)F [Compound 504A, 2-(3-{[2-methoxy-4-(pyridin-4-yl)phenyl]amino}prop-1-yn-1-yl)-N-(1-methylpiperidin-4-yl)-1-(2,2,2-trifluoroethyl)-1H-indol-4-amine] the “SC150 (concentration of the compound required to increase the DNA binding activity by 50%)” value was “+ (+ = 0 μM ≤ SC150 < 0.05 μM)”. With CN(C)[C@H]1CC[C@H](Nc2cccc3c2cc(C#CCn2c(=O)oc4cc(S(C)(=O)=O)ccc42)n3CC(F)(F)F)CC1 [Compound 125A, 3-(3-(4-(((1R,4R)-4-(dimethylamino)cyclohexyl)amino)-1-(2,2,2-trifluoroethyl)-1H-indol-2-yl)prop-2-yn-1-yl)-6-(methylsulfonyl)benzo[d]oxazol-2 (3H)-one] the “SC150 (concentration of the compound required to increase the DNA binding activity by 50%)” value was “++++ (++++ = 0.2 μM ≤ SC150 < 1 μM)”. COc1cc(S(C)(=O)=O)ccc1NCC#Cc1cc2c(NC3CCN(CC4COC(=O)O4)CC3)cccc2n1CC(F)(F)F (stereo not shown) [Compound 545A, 4-({4-[(2-{3-[(4-methanesulfonyl-2-methoxyphenyl)amino]prop-1-yn-1-yl}-1-(2,2,2-trifluoroethyl)-1H-indol-4-yl)amino]piperidin-1-yl}methyl)-1,3-dioxolan-2-one] was tested, and the “SC150 (concentration of the compound required to increase the DNA binding activity by 50%)” value was “+ (+ = 0 μM ≤ SC150 < 0.05 μM)”. For COc1cc(C(=O)NC(C)COC(=O)C(C)C)ccc1NCC#Cc1cc2c(N[C@@H]3CCN(C)C[C@@H]3F)cccc2n1CC(F)(F)F (stereo partly drawn) [Compound 972A, 2-[(4-{[3-(4-{[(3S,4R)-3-fluoro-1-methylpiperidin-4-yl]amino}-1-(2,2,2-trifluoroethyl)-1H-indol-2-yl)prop-2-yn-1-yl]amino}-3-methoxyphenyl)formamido]propyl 2-methylpropanoate], the “SC150 (concentration of the compound required to increase the DNA binding activity by 50%)” value was “+ (+ = 0 μM ≤ SC150 < 0.05 μM)”. In the case of COc1cc(C(C)(C)C#N)ncc1NCC#Cc1cc2c(NC3CCOCC3)cccc2n1CC(F)(F)F [Compound 995A, 2-{4-methoxy-5-[(3-{4-[(oxan-4-yl)amino]-1-(2,2,2-trifluoroethyl)-1H-indol-2-yl}prop-2-yn-1-yl)amino]pyridin-2-yl}-2-methylpropanenitrile], the “SC150 (concentration of the compound required to increase the DNA binding activity by 50%)” value is reported as “+ (+ = 0 μM ≤ SC150 < 0.05 μM)”. With CCS(=O)(=O)c1ccc(NCC#Cc2cc3c(N[C@@H]4CCN(C(=O)OC(C)(C)C)C[C@@H]4F)cccc3n2CC(F)(F)F)c(OC)c1 [Compound 922A, tert-butyl (3S,4R)-4-{[2-(3-{[4-(ethanesulfonyl)-2-methoxyphenyl]amino}prop-1-yn-1-yl)-1-(2,2,2-trifluoroethyl)-1H-indol-4-yl]amino}-3-fluoropiperidine-1-carboxylate] the “SC150 (concentration of the compound required to increase the DNA binding activity by 50%)” value was “++ (++ = 0.05 μM ≤ SC150 < 0.1 μM)”. CCS(=O)(=O)c1ccc(NCC#Cc2cc3c(N[C@H]4CC[C@H](N5CC6(COC6)C5)CC4)cccc3n2CC(F)(F)F)c(OC)c1 [Compound 269A, N-((1R,4R)-4-(2-oxa-6-azaspiro[3.3]heptan-6-yl)cyclohexyl)-2-(3-((4-(ethylsulfonyl)-2-methoxyphenyl)amino)prop-1-yn-1-yl)-1-(2,2,2-trifluoroethyl)-1H-indol-4-amine] was tested, and the “SC150 (concentration of the compound required to increase the DNA binding activity by 50%)” value was “+ (+ = 0 μM ≤ SC150 < 0.05 μM)”. For COc1cc(S(=O)(=O)NC(C)=O)ccc1NCC#Cc1cc2c(N[C@@H]3CCN(C)C[C@@H]3F)cccc2n1CC(F)(F)F [Compound 837A, N-(4-{[3-(4-{[(3S,4R)-3-fluoro-1-methylpiperidin-4-yl]amino}-1-(2,2,2-trifluoroethyl)-1H-indol-2-yl)prop-2-yn-1-yl]amino}-3-methoxybenzenesulfonyl)acetamide], the “SC150 (concentration of the compound required to increase the DNA binding activity by 50%)” value was “+ (+ = 0 μM ≤ SC150 < 0.05 μM)”.
